In US11098032B2, “Pyran dervatives as CYP11A1 (cytochrome P450 monooxygenase 11A1) inhibitors” (ORION CORPORATION, priority 2016, dated 2021) one finds IC50 data, which are given here for 32 compounds.

The assay has as its target T1, CYP11A1 (Homo sapiens, UniProt P05108).
T1 construct: human H295R adrenocortical carcinoma cell line was used as source of enzyme; endogenous in cells; host or cells: H295R human adrenocortical carcinoma cells
T1 sequence (P05108 40-521): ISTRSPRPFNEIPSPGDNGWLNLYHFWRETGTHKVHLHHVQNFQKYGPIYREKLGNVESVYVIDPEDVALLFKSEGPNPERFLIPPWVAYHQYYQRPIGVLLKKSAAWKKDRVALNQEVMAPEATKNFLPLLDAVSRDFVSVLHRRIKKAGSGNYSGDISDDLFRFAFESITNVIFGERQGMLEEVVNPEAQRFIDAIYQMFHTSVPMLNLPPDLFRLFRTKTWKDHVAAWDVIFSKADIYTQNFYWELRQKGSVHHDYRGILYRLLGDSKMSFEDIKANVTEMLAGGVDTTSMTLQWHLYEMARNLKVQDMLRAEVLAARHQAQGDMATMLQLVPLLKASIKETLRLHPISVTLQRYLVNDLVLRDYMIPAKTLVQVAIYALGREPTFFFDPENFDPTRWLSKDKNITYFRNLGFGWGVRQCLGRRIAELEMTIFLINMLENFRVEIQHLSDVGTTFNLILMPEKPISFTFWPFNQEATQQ
The assay is described as follows: CYP11A1 inhibition: modified isocaproic acid release assay (IARA) in H295R cells. Format: cell-based. The conditions noted are these: human H295R adrenocortical carcinoma cells treated three days, 3 nM [24,25-3H]-labelled cholesterol, 1% DMSO, 10 concentrations in duplicates; read-out: IC50 of the test compounds on CYP11A1 inhibition. The method, boiled down:
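H295R adrenocortical cells treated three days with test compounds at 10 concentrations in duplicate plus 3 nM [24,25-3H]-cholesterol, 1% DMSO final. Released radiolabelled isocaproic acid measured by scintillation counting after dextran-coated charcoal extraction; IC50 determined.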
On to `CCCC(=O)N1CCC(COc2coc(CN3Cc4ccccc4C3)cc2=O)CC1` [Compound 221, 5-((1-Butyrylpiperidin-4-yl)methoxy)-2-(isoindolin-2-ylmethyl)-4H-pyran-4-one], for which the 50% inhibitory concentration (IC50) is below 150 nM.

As to `CCN=S(C)(=O)c1ccc(COc2coc(CN3Cc4ccccc4C3)cc2=O)cc1` (centres unmarked) [Compound 97, 5-((4-(N-Ethyl-S-methylsulfonimidoyl)benzyl)oxy)-2-(isoindolin-2-ylmethyl)-4H-pyran-4-one], the IC50 lay within 150 to 300 nM.

Regarding `NC(=O)c1ccc(COc2coc(CN3CCc4ccccc4C3)cc2=O)cc1` [Compound 43, 4-(((6-((3,4-Dihydroisoquinolin-2(1H)-yl)methyl)-4-oxo-4H-pyran-3-yl)oxy)-methyl)benzamide], the 50% inhibitory concentration (IC50) lay in the range of 301 to 2000 nM.

For `CN(C)S(=O)(=O)N1CCC(COc2coc(CN3Cc4ccc(F)cc4C3)cc2=O)CC1` [Compound 230, 4-(((6-((5-Fluoroisoindolin-2-yl)methyl)-4-oxo-4H-pyran-3-yl)oxy)methyl)-N,N-dimethylpiperidine-1-sulfonamide], the IC50 is below 150 nM.

Take `CCS(=N)(=O)c1ccc(COc2coc(CN3Cc4ccc([N+](=O)[O-])cc4C3)cc2=O)cc1` (centres unmarked) [Compound 168, 5-((4-(Ethylsulfonimidoyl)benzyl)oxy)-2-((5-nitroisoindolin-2-yl)methyl)-4H-pyran-4-one]: the half-inhibitory concentration (IC50) was in the range of 150 to 300 nM.

`O=c1cc(CN2Cc3ccccc3C2)occ1OCC1CN(S(=O)(=O)c2csc(Cl)c2)C1` [Compound 30, 5-((1-((5-Chlorothiophen-3-yl)sulfonyl)azetidin-3-yl)methoxy)-2-(isoindolin-2-ylmethyl)-4H-pyran-4-one]: the IC50 lay within 150 to 300 nM.

On to `O=C(NCCCCO)c1ccc(COc2coc(CN3Cc4ccccc4C3)cc2=O)cc1` [Compound 145, N-(4-Hydroxybutyl)-4-(((6-(isoindolin-2-ylmethyl)-4-oxo-4H-pyran-3-yl)oxy)-methyl)benzamide], for which the IC50 was 301 to 2000 nM.

On to `CCS(=N)(=O)c1ccc(COc2coc(CN3Cc4ccccc4C3)cc2=O)cc1` (centres unmarked) [Compound 101, 5-((4-(Ethylsulfonimidoyl)benzyl)oxy)-2-(isoindolin-2-ylmethyl)-4H-pyran-4-one], for which the IC50 lay within 150 to 300 nM.

`COCCNS(=O)(=O)c1ccc(COc2coc(CN3Cc4ccccc4C3)cc2=O)cc1` [Compound 11, 4-(((6-(Isoindolin-2-ylmethyl)-4-oxo-4H-pyran-3-yl)oxy)methyl)-N-(2-methoxyethyl)benzenesulfonamide]: the IC50 was below 150 nM.

For the compound `CS(=O)(=O)N1CCC(CCOc2coc(CN3Cc4ccccc4C3)cc2=O)CC1` [Compound 198, 2-(Isoindolin-2-ylmethyl)-5-(2-(1-(methylsulfonyl)piperidin-4-yl)ethoxy)-4H-pyran-4-one], the 50% inhibitory concentration (IC50) is 150 to 300 nM.

Turning to `O=c1cc(CN2Cc3ccccc3C2)occ1OCC1CCC(CN2CCCS2(=O)=O)CC1` (centres unmarked) [Compound 176, 5-((4-((1,1-Dioxidoisothiazolidin-2-yl)methyl)cyclohexyl)methoxy)-2-(isoindolin-2-ylmethyl)-4H-pyran-4-one], the IC50 was below 150 nM.

`COCCN(C)S(=O)(=O)c1ccc(COc2coc(CN3Cc4ccccc4C3)cc2=O)cc1` [Compound 20, 4-(((6-(Isoindolin-2-ylmethyl)-4-oxo-4H-pyran-3-yl)oxy)methyl)-N-(2-methoxyethyl)-N-methylbenzenesulfonamide]: the IC50 lay in the range of 150 to 300 nM.

Regarding `Nc1cccc(COc2coc(CN3Cc4ccccc4C3)cc2=O)c1` [Compound 263, 5-((3-Aminobenzyl)oxy)-2-(isoindolin-2-ylmethyl)-4H-pyran-4-one], the IC50 fell in the range of 301 to 2000 nM.

Take `CN1Cc2cc(COc3coc(CN4Cc5ccccc5C4)cc3=O)ccc2C1=O` [Compound 106, 5-(((6-(Isoindolin-2-ylmethyl)-4-oxo-4H-pyran-3-yl)oxy)methyl)-2-methyl-isoindolin-1-one]: the concentration for half-maximal inhibition (IC50) is 301 to 2000 nM.

With `COc1ccc2c(c1)CN(Cc1cc(=O)c(OCc3ccc(C(=O)N(C)C)cc3)co1)C2` [Compound 138, 4-(((6-((5-Methoxyisoindolin-2-yl)methyl)-4-oxo-4H-pyran-3-yl)oxy)methyl)-N,N-dimethylbenzamide], the half-maximal inhibitory concentration (IC50) was below 150 nM.

For `COC(=O)[C@H]1CC[C@H](COc2coc(CN3Cc4ccccc4C3)cc2=O)CC1` [Compound 178, Methyl (1r,4r)-4-(((6-(isoindolin-2-ylmethyl)-4-oxo-4H-pyran-3-yl)oxy)methyl)-cyclohexane-1-carboxylate], the IC50 lay within 301 to 2000 nM.

In the case of `COc1ccc(COc2coc(CN3CCc4ccccc4C3)cc2=O)cc1` [Compound 121, 2-((3,4-Dihydroisoquinolin-2(1H)-yl)methyl)-5-((4-methoxybenzyl)oxy)-4H-pyran-4-one], the IC50 is 150 to 300 nM.

In the case of `O=c1cc(CN2Cc3ccccc3C2)occ1OCc1ccc(-n2cccn2)cc1` [Compound 108, 5-((4-(1H-Pyrazol-1-yl)benzyl)oxy)-2-(isoindolin-2-ylmethyl)-4H-pyran-4-one], the IC50 lay in the range of 150 to 300 nM.

As to `O=C(COc1coc(CN2Cc3ccccc3C2)cc1=O)N1CCC(Cc2ccccc2)CC1` [Compound 155, 5-(2-(4-Benzylpiperidin-1-yl)-2-oxoethoxy)-2-(isoindolin-2-ylmethyl)-4H-pyran-4-one], the half-maximal inhibitory concentration (IC50) lay in the range of 301 to 2000 nM.

As for `CC(=O)N=S(C)(=O)c1ccc(COc2coc(CN3Cc4ccccc4C3)cc2=O)cc1` (centres unmarked) [Compound 94, N-{[4-({[6-(1,3-dihydro-2H-isoindol-2-ylmethyl)-4-oxo-4H-pyran-3-yl]oxy}-methyl)phenyl](methyl)oxido-λ^6-sulfanylidene}], the IC50 lay in the range of 150 to 300 nM.

Take `O=c1cc(CN2Cc3ccccc3C2)occ1OCC1CCN(S(=O)(=O)C2COC2)CC1` [Compound 36, 2-(Isoindolin-2-ylmethyl)-5-((1-(oxetan-3-ylsulfonyl)piperidin-4-yl)methoxy)-4H-pyran-4-one]: the IC50 was below 150 nM.

For `N#Cc1ccc(COc2coc(CN3CCc4ccccc4C3)cc2=O)cc1Cl` [Compound 118, 2-Chloro-4-(((6-((3,4-dihydroisoquinolin-2(1H)-yl)methyl)-4-oxo-4H-pyran-3-yl)oxy)methyl)benzonitrile], the IC50 lay within 301 to 2000 nM.

`CC1(C)c2ccccc2CN1Cc1cc(=O)c(OCC2CCN(S(C)(=O)=O)CC2)co1` [Compound 212, 2-((1,1-Dimethylisoindolin-2-yl)methyl)-5-((1-(methylsulfonyl)piperidin-4-yl)-methoxy)-4H-pyran-4-one]: the IC50 lay within 301 to 2000 nM.

For `CC(=O)OCC(C)(C)NC(=O)c1ccc(COc2coc(CN3Cc4ccccc4C3)cc2=O)cc1` [Compound 143, 2-(4-(((6-(Isoindolin-2-ylmethyl)-4-oxo-4H-pyran-3-yl)oxy)methyl)benzamido)-2-methylpropyl acetate], the IC50 was 150 to 300 nM.

`CCN(CCO)S(=O)(=O)c1ccc(COc2coc(CN3Cc4ccccc4C3)cc2=O)cc1` [Compound 21, N-Ethyl-N-(2-hydroxyethyl)-4-(((6-(isoindolin-2-ylmethyl)-4-oxo-4H-pyran-3-yl)oxy)methyl)benzenesulfonamide]: the IC50 was below 150 nM.

For the compound `O=C(N1CCC(COc2coc(CN3Cc4ccccc4C3)cc2=O)CC1)C(F)(F)F` [Compound 273, 2-(Isoindolin-2-ylmethyl)-5-((1-(2,2,2-trifluoroacetyl)piperidin-4-yl)methoxy)-4H-pyran-4-one], the half-inhibitory concentration (IC50) lay in the range of 150 to 300 nM.

Consider `O=C(C1CC1)N1CCC(COc2coc(CN3Cc4ccccc4C3)cc2=O)CC1` [Compound 226, 5-((1-(Cyclopropanecarbonyl)piperidin-4-yl)methoxy)-2-(isoindolin-2-ylmethyl)-4H-pyran-4-one], for which the half-inhibitory concentration (IC50) is below 150 nM.

`CS(=O)(=O)N1CCC(COc2coc(C[N+]3([O-])Cc4ccc(C(F)(F)F)cc4C3)cc2=O)CC1` (centres unmarked) [Compound 290, 2-((5-((1-(Methylsulfonyl)piperidin-4-yl)methoxy)-4-oxo-4H-pyran-2-yl)methyl)-5-(trifluoromethyl)isoindoline 2-oxide]: the IC50 lay within 301 to 2000 nM.

With `N=S(=O)(c1ccc(COc2coc(CN3Cc4ccccc4C3)cc2=O)cc1)C1CCC1` (centres unmarked) [Compound 71, 5-((4-(Cyclobutanesulfonimidoyl)benzyl)oxy)-2-(isoindolin-2-ylmethyl)-4H-pyran-4-one], the half-maximal inhibitory concentration (IC50) is below 150 nM.

For the compound `CN(C)C(=O)N1CCC(COc2coc(CN3Cc4ccc(F)cc4C3)cc2=O)CC1` [Compound 181, 4-(((6-((5-Fluoroisoindolin-2-yl)methyl)-4-oxo-4H-pyran-3-yl)oxy)methyl)-N,N-dimethylpiperidine-1-carboxamide], the 50% inhibitory concentration (IC50) was in the range of 150 to 300 nM.

For the compound `CNC(=O)c1ccc(COc2coc(CN3Cc4ccccc4C3)cc2=O)cc1F` [Compound 79, 2-Fluoro-4-(((6-(isoindolin-2-ylmethyl)-4-oxo-4H-pyran-3-yl)oxy)methyl)-N-methylbenzamide], the half-maximal inhibitory concentration (IC50) lay in the range of 301 to 2000 nM.

Consider `CC(C)(C)OC(=O)N1CCC[C@H](COc2coc(CN3Cc4ccccc4C3)cc2=O)C1` [Compound 201, (S)-tert-Butyl 3-(((6-(isoindolin-2-ylmethyl)-4-oxo-4H-pyran-3-yl)oxy)methyl)-piperidine-1-carboxylate], for which the concentration for half-maximal inhibition (IC50) lay within 301 to 2000 nM.
